Consider three compounds from patent publication US20210361565A1, “Oral Pharmaceutical Composition of an NK-1 Antagonist” (Intervet Inc., priority 2017, published 2021).

The subject of assay [1] is centrally acting emetogens (apomorphine IV) and peripherally acting emetogens (syrup of ipecac orally). The settings on record: dogs; cited from earlier work.
Assay [2] relates to chemotherapy induced nausea and vomiting. Particulars: humans; cited from earlier work.
For assay [3], the system named is apomorphine-induced emesis. Briefly: Apomorphine-induced emesis model. Format: in vivo, dog. The settings on record: single oral dose 5 mg/kg; FIGS. 5A-5B. The text has this: Apomorphine-induced emesis model is a well-established canine model to investigate antiemetic actions of new compounds and has been used in studies investigating new NK1 antagonists (Furukawa et al. Biol Pharm Bull 36:974-979, 2013) as well as Cerenia and other antiemetic drugs used in dogs (Sedlacek et al. J Vet Pharmacol Therap 31:533-537, 2008).
The canine model of apomorphine-induced emesis is a well-established model to investigate antiemetic actions of new compounds and has been used in studies investigating new NK1 antagonists (Furukawa et al. Biol Pharm Bull 36:974-979, 2013) as well as Cerenia and other antiemetic drugs used in dogs (Sedlacek et al. J Vet Pharmacol Therap 31:533-537, 2008). This model was used to evaluate the antiemetic activity of telmapitant in non-aqueous solution formulations and solid formulations (FIGS. 4A and 4B). The onset of action (FIGS. 4A and 4B) as well as the duration of activity (FIGS. 5A and 5B) were investigated after a single oral administration. Intravenous (IV) administration of apomorphine (emetogenic challenge 0.03 mg/kg) was delivered to all individuals 2 h, 4 h, 6 h, 8 h, 24 h, and 120 h (FIGS. 4A and 4B) or 1 d, 3 d, 5 d, 6 d, and 7 d (FIGS. 5A and 5B). […] Any emetic events (vomiting episodes and/or retches) following each emetogenic challenge were recorded for 20 min. […]

With `COc1ccc(C(C)(C)C)cc1CN[C@H]1C2CCN(CC2)[C@H]1C(c1ccccc1)c1ccccc1` [maropitant], the “antiemetic effectiveness against emetogens” value in assay [1] is given as “effective”.
Take `C[C@@H](OC[C@@]1(c2ccccc2)CC[C@]2(CCC(=O)N2)CN1)c1cc(C(F)(F)F)cc(C(F)(F)F)c1` [rolapitant]: in assay [2], the “efficacy and safety for prevention of chemotherapy induced nausea and vomiting” value was “efficacious and safe”.
On to `C[C@@H](OC[C@@]1(c2ccccc2)CC[C@]2(CN1)NC(=O)NC2=O)c1cc(C(F)(F)F)cc(C(F)(F)F)c1` [telmapitant, (5R,8S)-8-[[(1R)-1-[3,5-bis(trifluoromethyl)phenyl]ethoxy]methyl]-8-phenyl-1,3,9-triazaspiro[4.5]decane-2,4-dione], for which, in assay [3], the “antiemetic data at 5 mg/kg versus 7 mg/kg” value is “not significantly different”.
